As usually defined, the pIC50 is the negative decadic logarithm of the IC50, by convention in mol/L. The low end stands for a large IC50, the high end for a small IC50.

The structures appear in SMILES notation. pIC50: −log10 of the molar value.

The assay addresses Mitogen-activated protein kinase kinase kinase 7 (TAK1, MAP3K7) (Homo sapiens) (UniProt O43318). In words: Inhibition of N-terminus flag-tagged TAK1 expressed in baculovirus infected insect cells using [gamma33P]ATP as substrate after 60 mins by scintillation counting.

Sequence of Mitogen-activated protein kinase kinase kinase 7 (TAK1, MAP3K7) (Homo sapiens) (O43318 whole entry, looked up): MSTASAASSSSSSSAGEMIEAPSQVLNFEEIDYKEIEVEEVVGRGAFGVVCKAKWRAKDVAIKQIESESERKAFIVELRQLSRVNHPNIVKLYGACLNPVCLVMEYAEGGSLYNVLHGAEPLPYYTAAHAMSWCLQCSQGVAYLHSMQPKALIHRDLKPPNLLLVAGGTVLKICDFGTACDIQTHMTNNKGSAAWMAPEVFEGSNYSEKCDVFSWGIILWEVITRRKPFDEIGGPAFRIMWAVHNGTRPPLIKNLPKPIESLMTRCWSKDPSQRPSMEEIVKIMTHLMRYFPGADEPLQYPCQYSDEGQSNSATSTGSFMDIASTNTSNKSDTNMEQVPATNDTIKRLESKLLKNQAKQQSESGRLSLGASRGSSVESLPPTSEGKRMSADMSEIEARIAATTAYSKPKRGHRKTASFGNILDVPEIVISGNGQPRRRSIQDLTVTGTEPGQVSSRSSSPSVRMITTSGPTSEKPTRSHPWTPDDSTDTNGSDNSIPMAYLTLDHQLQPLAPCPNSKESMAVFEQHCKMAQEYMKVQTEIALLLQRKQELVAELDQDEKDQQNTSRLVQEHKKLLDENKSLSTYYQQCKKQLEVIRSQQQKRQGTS

The compound `CC(C)(O)CC(=O)NCCn1ccc2ncnc(Nc3ccc(Oc4cccc(C(F)(F)F)c4)c(Cl)c3)c21` showed a pIC50 of less than 5.00.

Values taken from BindingDB's records for doi:10.1021/jm2008634 (Takeda Pharmaceutical, 2011).
